{"source": "patent US20080241076A1", "about": "“Method and composition for increasing Erythropoietin” (priority 2007, published 2008)", "origin": "cited, not measured here", "key": {"[1]": {"tested_on": "kidney production of EPO", "details": "dog kidneys; substances given separately"}, "[2]": {"details": "in-vitro, 14C-labeled"}, "[3]": {"tested_on": "erythrocyte", "details": "Carnitine supplementation"}, "[4]": {"tested_on": "RBC"}, "[5]": {"tested_on": "responsiveness to EPO", "details": "in vivo"}, "[6]": {"tested_on": "hemoglobin levels", "details": "hemodialysis patients"}, "[7]": {"details": "human, in vivo"}, "[8]": {"tested_on": "renal EPO production", "details": "animal studies"}, "[9]": {"tested_on": "endogenous glutathione"}, "[10]": {"tested_on": "erythrocyte 2,3-bisphosphoglycerate (2,3-BPG)", "details": "following phosphate loading"}, "[11]": {"tested_on": "blood flow", "details": "animal study"}, "[12]": {"tested_on": "blood clots", "details": "human trials, feeding"}, "[13]": {"tested_on": "induced clots", "details": "dogs with induced clots"}}}
{"molecule": "CCCCC/C=C\\C/C=C\\C/C=C\\C/C=C\\CCCC(=O)O", "note": "[Arachidonic Acid, all-cis-5,8,11,14-eicossatetraenoic acid]", "values": [{"measurement": "kidney production of EPO", "setting": "[1]", "result": "increased"}, {"measurement": "prostaglandins produced from Arachidonic acid", "setting": "[2]", "result": "PGD2, PGE2, PGF2 alpha and 6-keto-PGF1 alpha"}]}
{"molecule": "C[N+](C)(C)CC(O)CC(=O)[O-]", "note": "(stereo not drawn) [Carnitine]", "values": [{"measurement": "erythrocyte survival time", "setting": "[3]", "result": "increase"}]}
{"molecule": "CCCCC[C@H](O)/C=C/[C@H]1[C@H](O)CC(=O)[C@@H]1C/C=C\\CCCC(=O)O", "note": "[PGE2, reference compound]", "values": [{"measurement": "kidney production of EPO", "setting": "[1]", "result": "increased"}, {"measurement": "iron incorporation in RBC", "setting": "[4]", "result": "significant increase"}]}
{"molecule": "O=C1O[C@H]([C@@H](O)CO)C(O)=C1O", "note": "[Vitamin C]", "values": [{"measurement": "responsiveness to EPO", "setting": "[5]", "result": "improve"}, {"measurement": "hemoglobin levels", "setting": "[6]", "result": "significant increases"}]}
{"molecule": "[Se]", "note": "[selenium]", "values": [{"measurement": "elemental concentration in whole blood and plasma", "setting": "[7]", "result": "significant increase"}]}
{"molecule": "Vitamin A", "values": [{"measurement": "renal EPO production", "setting": "[8]", "result": "increase"}]}
{"molecule": "Vitamin E", "values": [{"measurement": "endogenous glutathione", "setting": "[9]", "result": "stabilize"}]}
{"molecule": "phosphate", "values": [{"measurement": "erythrocyte 2,3-BPG", "setting": "[10]", "result": "significant increase"}]}
{"molecule": "plasmin: the body's natural fibrinolytic enzyme (protein, UniProt P00747 20-580; P00747 581-810, looked up, plasmin, the body's natural fibrinolytic enzyme) Plasmin heavy chain A: EPLDDYVNTQGASLFSVTKKQLGAGSIEECAAKCEEDEEFTCRAFQYHSKEQQCVIMAENRKSSIIIRMRDVVLFEKKVYLSECKTGNGKNYRGTMSKTKNGITCQKWSSTSPHRPRFSPATHPSEGLEENYCRNPDNDPQGPWCYTTDPEKRYDYCDILECEEECMHCSGENYDGKISKTMSGLECQAWDSQSPHAHGYIPSKFPNKNLKKNYCRNPDRELRPWCFTTDPNKRWELCDIPRCTTPPPSSGPTYQCLKGTGENYRGNVAVTVSGHTCQHWSAQTPHTHNRTPENFPCKNLDENYCRNPDGKRAPWCHTTNSQVRWEYCKIPSCDSSPVSTEQLAPTAPPELTPVVQDCYHGDGQSYRGTSSTTTTGKKCQSWSSMTPHRHQKTPENYPNAGLTMNYCRNPDADKGPWCFTTDPSVRWEYCNLKKCSGTEASVVAPPPVVLLPDVETPSEEDCMFGNGKGYRGKRATTVTGTPCQDWAAQEPHRHSIFTPETNPRAGLEKNYCRNPDGDVGGPWCYTTNPRKLYDYCDVPQCAAPSFDCGKPQVEPKKCPGR Plasmin light chain B: VVGGCVAHPHSWPWQVSLRTRFGMHFCGGTLISPEWVLTAAHCLEKSPRPSSYKVILGAHQEVNLEPHVQEIEVSRLFLEPTRKDIALLKLSSPAVITDKVIPACLPSPNYVVADRTECFITGWGETQGTFGAGLLKEAQLPVIENKVCNRYEFLNGRVQSTELCAGHLAGGTDSCQGDSGGPLVCFEKDKYILQGVTSWGLGCARPNKPGVYVRVSRFVTWIEGVMRNN", "values": [{"measurement": "regain in blood flow", "setting": "[11]", "result": 15.8, "unit": "%"}]}
{"molecule": "Nattokinase: potent fibrinolytic enzyme extracted from a Japanese food called Natto (protein, UniProt P35835 107-381, looked up) Subtilisin NAT: AQSVPYGISQIKAPALHSQGYTGSNVKVAVIDSGIDSSHPDLNVRGGASFVPSETNPYQDGSSHGTHVAGTIAALNNSIGVLGVAPSASLYAVKVLDSTGSGQYSWIINGIEWAISNNMDVINMSLGGPTGSTALKTVVDKAVSSGIVVAAAAGNEGSSGSTSTVGYPAKYPSTIAVGAVNSSNQRASFSSVGSELDVMAPGVSIQSTLPGGTYGAYNGTSMATPHVAGAAALILSKHPTWTNAQVRDRLESTATYLGNSFYYGKGLINVQAAAQ", "values": [{"measurement": "ability to dissolve blood clots", "setting": "[12]", "result": "heightened ability to dissolve blood clots"}, {"measurement": "time to regain normal blood circulation", "setting": "[13]", "result": "within five hours"}, {"measurement": "regain in blood flow", "setting": "[11]", "result": 62, "unit": "%"}]}
